In patent publication US10239849B2 (Merck Sharp & Dohme Corp., priority 2015, dated 2019):

Legend:
[1] = target: T1, glutathione-S-transferase (GST) tagged LXRalpha LBD (ligand binding domain) (Homo sapiens, UniProt Q13133); assay: LanthaScreen TR-FRET Liver X Receptor Coactivator Assay, LXR alpha-LBD; format: biochemical; settings: for Emax: efficacy in relation to reference dual agonist T1317, read-out: LXR alpha activity at max dose (%) (Emax); for EC50: read-out: LXR alpha IP
T1 construct: purchased Invitrogen pv4655
T1 sequence (Q13133 209-447 limits assumed): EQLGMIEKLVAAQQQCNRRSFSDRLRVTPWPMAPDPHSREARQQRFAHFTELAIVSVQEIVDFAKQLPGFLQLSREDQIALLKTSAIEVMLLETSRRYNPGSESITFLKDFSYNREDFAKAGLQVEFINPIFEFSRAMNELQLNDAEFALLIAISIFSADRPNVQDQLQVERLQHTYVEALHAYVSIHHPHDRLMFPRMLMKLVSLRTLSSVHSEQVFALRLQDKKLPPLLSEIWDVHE
Method in brief: (§1)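 Test ligands were combined with the receptor LBD, after which terbium-labelled anti-GST antibody and a fluorescein-tagged coactivator peptide were introduced together. Plates sat at room temperature, then time-resolved FRET was measured.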

[2] = target: T2, glutathione-S-transferase (GST) tagged LXRbeta LBD (ligand binding domain) (Homo sapiens, UniProt P55055); assay: LanthaScreen TR-FRET Liver X Receptor Coactivator Assay, LXR beta-LBD; format: biochemical; settings: for Emax: efficacy in relation to reference dual agonist T1317, read-out: LXR beta activity at max dose (%) (Emax); for EC50: potency (Inflection Point) of co-activator recruitment, TR-FRET, read-out: LXR beta IP
T2 construct: purchased Invitrogen pv4658.pps
T2 sequence (P55055 222-460 limits assumed): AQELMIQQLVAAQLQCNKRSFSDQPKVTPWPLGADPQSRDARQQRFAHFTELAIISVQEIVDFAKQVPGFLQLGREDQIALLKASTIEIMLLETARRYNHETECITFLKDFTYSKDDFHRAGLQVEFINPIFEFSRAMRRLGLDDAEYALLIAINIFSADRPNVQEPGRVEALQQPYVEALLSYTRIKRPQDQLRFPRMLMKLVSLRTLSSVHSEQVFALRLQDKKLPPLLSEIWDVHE
Method in brief: as §1

[3] = potency (Inflection Point) of co-activator recruitment, TR-FRET

Work on CN(CCn1ccnc1)C(=O)c1ccc(-c2cnc(N3CCN(C(=O)OC(C)(C)C)CC3)c(C#N)c2)cc1Cl [Example 5-21, tert-butyl 4-[5-(3-chloro-4-{[2-(1H-imidazol-1-yl)ethyl](methyl)carbamoyl}phenyl)-3-cyanopyridin-2-yl]piperazine-1-carboxylate] yielded an Emax [1] of 37%, an EC50 [1, 3] of 9240 nM and an Emax [2] of 81%. The EC50 [2] was 931 nM.

For CN(Cc1cnn(C)c1)C(=O)c1ccc(-c2cnc(N3CCN(C(=O)OC(C)(C)C)CC3)c(C#N)c2)cc1Cl [Example 5-22, tert-butyl 4-[5-(3-chloro-4-{methyl[(1-methyl-1H-pyrazol-4-yl)methyl]carbamoyl}phenyl)-3-cyanopyridin-2-yl]piperazine-1-carboxylate], the Emax [1] was 34%, the EC50 [1, 3] was 9700 nM and the Emax [2] was 65%. It also gave an EC50 [2] of 382 nM.

Work on CN(CCn1cccn1)C(=O)c1ccc(-c2cnc(N3CCN(C(=O)OC(C)(C)C)CC3)c(C#N)c2)cc1Cl [Example 5-23, tert-butyl 4-[5-(3-chloro-4-{methyl[2-(1H-pyrazol-1-yl)ethyl]carbamoyl}phenyl)-3-cyanopyridin-2-yl]piperazine-1-carboxylate] yielded an Emax [1] of 46%, an EC50 [1, 3] of 19300 nM and an Emax [2] of 74%. It also gave an EC50 [2] of 282 nM.

CN(CCn1cncn1)C(=O)c1ccc(-c2cnc(N3CCN(C(=O)OC(C)(C)C)CC3)c(C#N)c2)cc1Cl [Example 5-24, tert-butyl 4-[5-(3-chloro-4-{methyl[2-(1H-1,2,4-triazol-1-yl)ethyl]carbamoyl}phenyl)-3-cyanopyridin-2-yl]piperazine-1-carboxylate] showed an Emax [1] of 52%, an EC50 [1, 3] of 8460 nM and an Emax [2] of 71%. The EC50 [2] was 118 nM.

Compound CC(O)CN(CC(C)O)C(=O)c1ccc(-c2cnc(N3CCN(C(=O)OC(C)(C)C)CC3)c(C#N)c2)cc1Cl (stereo not drawn) [Example 5-25, tert-butyl 4-(5-{4-[bis(2-hydroxypropyl)carbamoyl]-3-chlorophenyl}-3-cyanopyridin-2-yl)piperazine-1-carboxylate] has an Emax [1] of 36%, an EC50 [1, 3] of 7890 nM and an Emax [2] of 56%. The EC50 [2] was 741 nM.

Work on CN(CCc1ccccc1)C(=O)c1ccc(-c2cnc(N3CCN(C(=O)OC(C)(C)C)CC3)c(C#N)c2)cc1Cl [Example 5-26, tert-butyl 4-(5-{3-chloro-4-[methyl(2-phenylethyl)carbamoyl]phenyl}-3-cyanopyridin-2-yl)piperazine-1-carboxylate] yielded an Emax [1] of 48%, an EC50 [1, 3] of 25900 nM and an Emax [2] of 74%. It also gave an EC50 [2] of 4270 nM.

With CN(CCc1ccncc1)C(=O)c1ccc(-c2cnc(N3CCN(C(=O)OC(C)(C)C)CC3)c(C#N)c2)cc1Cl [Example 5-27, tert-butyl 4-(5-{3-chloro-4-[methyl(2-pyridin-4-ylethyl)carbamoyl]phenyl}-3-cyanopyridin-2-yl)piperazine-1-carboxylate] the Emax [1] was 17%, the “LXR alpha IP (nM)” value [1, 3] was “No IP” and the Emax [2] was 76%. The EC50 [2] was 705 nM.

For Cc1nc(CCN(C)C(=O)c2ccc(-c3cnc(N4CCN(C(=O)OC(C)(C)C)CC4)c(C#N)c3)cc2Cl)no1 [Example 5-28, tert-butyl 4-[5-(3-chloro-4-{methyl[2-(5-methyl-1,2,4-oxadiazol-3-yl)ethyl]carbamoyl}phenyl)-3-cyanopyridin-2-yl]piperazine-1-carboxylate], the Emax [1] was 71%, the EC50 [1, 3] was 3710 nM and the Emax [2] was 84%. For the same compound, the EC50 [2] was 164 nM.

CN(CC(O)c1ccccc1)C(=O)c1ccc(-c2cnc(N3CCN(C(=O)OC(C)(C)C)CC3)c(C#N)c2)cc1Cl (stereo not drawn) [Example 5-29, tert-butyl 4-(5-{3-chloro-4-[(2-hydroxy-2-phenylethyl)(methyl)carbamoyl]phenyl}-3-cyanopyridin-2-yl)piperazine-1-carboxylate] gave an Emax [1] of 30%, an EC50 [1, 3] of 6580 nM and an Emax [2] of 75%. For the same compound, the EC50 [2] was 1170 nM.

For CC(C)(C)OC(=O)N1CCN(c2ncc(-c3ccc(C(=O)N(CCO)Cc4ccccc4)c(Cl)c3)cc2C#N)CC1 [Example 5-30, tert-butyl 4-(5-{4-[benzyl(2-hydroxyethyl)carbamoyl]-3-chlorophenyl}-3-cyanopyridin-2-yl)piperazine-1-carboxylate], the Emax [1] was 57%, the EC50 [1, 3] was 10000 nM and the Emax [2] was 73%. It also gave an EC50 [2] of 1190 nM.

CN(CC(O)c1ccc(O)cc1)C(=O)c1ccc(-c2cnc(N3CCN(C(=O)OC(C)(C)C)CC3)c(C#N)c2)cc1Cl (stereo not drawn) [Example 5-31, tert-butyl 4-[5-(3-chloro-4-{[2-hydroxy-2-(4-hydroxyphenyl)ethyl](methyl)carbamoyl}phenyl)-3-cyanopyridin-2-yl]piperazine-1-carboxylate] was tested, and the Emax [1] was 27%, the EC50 [1, 3] was 8530 nM and the Emax [2] was 67%. It also gave an EC50 [2] of 1860 nM.

C=CCN(C(=O)c1ccc(-c2cnc(N3CCN(C(=O)OC(C)(C)C)CC3)c(C#N)c2)cc1Cl)C1CCS(=O)(=O)C1 (stereo not drawn) [Example 5-32, tert-butyl 4-(5-{3-chloro-4-[(1,1-dioxidotetrahydro-thiophen-3-yl)(prop-2-en-1-yl)carbamoyl]phenyl}-3-cyanopyridin-2-yl)piperazine-1-carboxylate] gave an Emax [1] of 44%, an EC50 [1, 3] of 23900 nM and an Emax [2] of 78%. It also gave an EC50 [2] of 2210 nM.

With COc1ccc2nc(CCN(C)C(=O)c3ccc(-c4cnc(N5CCN(C(=O)OC(C)(C)C)CC5)c(C#N)c4)cc3Cl)[nH]c2c1 [Example 5-33, tert-butyl 4-[5-(3-chloro-4-{[2-(6-methoxy-1H-benzimidazol-2-yl)ethyl](methyl)carbamoyl}phenyl)-3-cyanopyridin-2-yl]piperazine-1-carboxylate] the Emax [1] was 52%, the EC50 [1, 3] was 4830 nM and the Emax [2] was 78%. It also gave an EC50 [2] of 703 nM.

For CN(CCn1cncn1)C(=O)c1ccc(-c2cnc(N3CCN(C(=O)[C@](O)(c4ccccc4)C(F)(F)F)CC3)c(C#N)c2)cc1Cl [Example 6-1, 2-chloro-4-(5-cyano-6-{4-[(2R)-3,3,3-trifluoro-2-hydroxy-2-phenylpropanoyl]piperazin-1-yl}pyridin-3-yl)-N-methyl-N-[2-(1H-1,2,4-triazol-yl)ethyl]benzamide], the Emax [1] was 33%, the EC50 [1, 3] was 1170 nM and the Emax [2] was 101%. It also gave an EC50 [2] of 2 nM.

In the case of CNC(=O)c1ccc(-c2cnc(N3CCN(C(=O)C(C)(C)C)CC3)c(C#N)c2)cc1Cl [Example 6-2, 2-chloro-4-{5-cyano-6-[4-(2,2-dimethylpropanoyl)piperazin-1-yl]pyridin-3-yl}-N-methylbenzamide], the Emax [1] is reported as 34%, the EC50 [1, 3] is reported as 11300 nM and the Emax [2] is reported as 98%. It also gave an EC50 [2] of 329 nM.

Compound CN(CCn1cncn1)C(=O)c1ccc(-c2cnc(N3CCN(C(=O)C(C)(C)c4ccccc4)CC3)c(C#N)c2)cc1Cl [Example 6-3, 2-chloro-4-{5-cyano-6-[4-(2-methyl-2-phenylpropanoyl)piperazin-1-yl]pyridin-3-yl}-N-methyl-N-[2-(1H-1,2,4-triazol-1-yl)ethyl]benzamide] has an Emax [1] of 33%, an EC50 [1, 3] of 2420 nM and an Emax [2] of 113%. For the same compound, the EC50 [2] was 30 nM.

CN(C)C(=O)c1c(Cl)cc(-c2cnc(N3CCN(C(=O)[C@](O)(c4ccccc4)C(F)(F)F)CC3)c(C#N)c2)cc1Cl [Example 7-1, 2,6-dichloro-4-(5-cyano-6-{4-[(2R)-3,3,3-trifluoro-2-hydroxy-2-phenylpropanoyl]piperazin-1-yl}pyridin-3-yl)-N,N-dimethylbenzamide] showed an Emax [1] of 53%, an EC50 [1, 3] of 186 nM and an Emax [2] of 73%. The EC50 [2] was 3 nM.

In the case of CC(C)C(=O)C(=O)N1CCN(c2ncc(-c3cc(Cl)c(C(=O)N(C)C)c(Cl)c3)cc2C#N)CC1 [Example 7-2, 2,6-dichloro-4-{5-cyano-6-[4-(3-methyl-2-oxobutanoyl)piperazin-1-yl]pyridin-3-yl}1-N,N-dimethylbenzamide], the Emax [1] is reported as 30%, the EC50 [1, 3] is reported as 2040 nM and the Emax [2] is reported as 88%. For the same compound, the EC50 [2] was 32 nM.

CN(C)C(=O)c1c(Cl)cc(-c2cnc(N3CC4CCC(C3)N4C(=O)OC(C)(C)C)c(C#N)c2)cc1Cl [Example 7-3, tert-butyl 3-(3-cyano-5-(3,5-dichloro-4-(dimethylcarbamoyl)phenyl)pyridin-2-yl)-3,8-diazabicyclo[3.2.1]octane-8-carboxylate] was tested, and the Emax [1] was 21%, the EC50 [1, 3] was 151 nM and the Emax [2] was 67%. It also gave an EC50 [2] of 13 nM.

CN(C)C(=O)c1c(Cl)cc(-c2cnc(N3CC4CCC3CN4C(=O)OC(C)(C)C)c(C#N)c2)cc1Cl (stereo not drawn) [Example 7-4, tert-butyl 5-(3-cyano-5-(3,5-dichloro-4-(dimethylcarbamoyl)phenyl)pyridin-2-yl)-2,5-diazabicyclo[2.2.2]octane-2-carboxylate] gave an Emax [1] of 11%, an EC50 [1, 3] of 671 nM and an Emax [2] of 62%. The EC50 [2] was 49 nM.

Work on CN(C)C(=O)c1ccc(-c2ccc(N3CCCN(C(=O)OC(C)(C)C)CC3)cc2)cc1Cl [Example 8-1, tert-butyl 4-[3′-chloro-4′-(dimethylcarbamoyl)biphenyl-4-yl]-1,4-diazepane-1-carboxylate] yielded an Emax [1] of 55%, an EC50 [1, 3] of 936 nM and an Emax [2] of 86%. For the same compound, the EC50 [2] was 63 nM.
